From ChEMBL document CHEMBL1127176, “Restricted rotation analogs of S-adenosylmethionine: synthesis, evaluation as inhibitors of S-adenosylmethionine decarboxylase, and potential use as selective antitrypanosomal agents” (Bioorg Med Chem Lett, 1993)

Legend:
HL-60 = test: Tested for the ability to traverse cell membranes and to alter ratio of AdoMet to S-adenosyl-homocysteine (AdoHcy) in HL60 human promyelocytic leukemia cells; format: functional, cell-based
Trypanosoma brucei = test: Tested for antitrypanosomal activity against blood forms of Trypanosoma uM concentration; format: functional
L1210 = test: Tested for the ability to traverse cell membranes and to alter ratio of AdoMet to S-adenosyl-homocysteine (AdoHcy) in L1210 murine lymphocytic leukemia cells; IA means inactive; format: functional, cell-based, Mus musculus
HT-29 = test: Tested for the ability to traverse cell membranes and to alter ratio of AdoMet to S-adenosyl-homocysteine (AdoHcy) in HT-29 human colon carcinoma; IA means inactive; format: functional, cell-based

Structure (SMILES) | IC50 (HL-60) [µM] | Inhibition (Trypanosoma brucei) [%] | IC50 (L1210) | IC50 (HT-29)
C[S+](C[C@H]1O[C@@H](n2cnc3c(N)ncnc32)[C@H](O)[C@@H]1O)[C@H]1CN[C@H](C(=O)O)C1.O=S(=O)(O)O.O=S(=O)([O-])O (stereo partly drawn) | > 1000 | 34 | – | –
C[S+](C[C@H]1O[C@@H](n2cnc3c(N)ncnc32)[C@H](O)[C@@H]1O)C1C=C[C@H](N)C1.O=S(=O)(O)O.O=S(=O)([O-])O (stereo partly drawn) | – | 50 | Not Active | Not Active
C[S+](C[C@H]1O[C@@H](n2cnc3c(N)ncnc32)[C@H](O)[C@@H]1O)C1CCNC1.O=S(=O)(O)O.O=S(=O)([O-])O (stereo partly drawn) | – | 49 | – | –
C[S+](C[C@H]1O[C@@H](n2cnc3c(N)ncnc32)[C@H](O)[C@@H]1O)C1CN[C@H](C(=O)O)C1.O=S(=O)(O)O.O=S(=O)([O-])O (stereo partly drawn) | > 1000 | 64 | – | –
Nc1ncnc2c1ncn2[C@@H]1O[C@H](CS[C@@H]2CN[C@H](C(=O)O)C2)[C@@H](O)[C@H]1O.O=S(=O)(O)O | > 1000 | 30 | – | –
Nc1ncnc2c1ncn2[C@@H]1O[C@H](CSC2CCNC2)[C@@H](O)[C@H]1O.O=S(=O)(O)O (stereo partly drawn) | – | 40 | – | –
Nc1ncnc2c1ncn2[C@@H]1O[C@H](CS[C@H]2CN[C@H](C(=O)O)C2)[C@@H](O)[C@H]1O.O=S(=O)(O)O | > 1000 | 41 | – | –
